Measurements as given in US20190374509A1, “Methods of Using Metamizole for Treatment of Pyrexia in Equines” (Kindred Biosciences, Inc., priority 2018, published 2019).
Values joined by “and” are separate entries in the source; they are usually repeats but may differ in a detail not shown here. Equal values may be shown once.

Columns and labels:
horses [1] = assay: Margin of safety study, IV three times daily for 9 days: coagulation panel (prothrombin time, APTT, fibrinogen); format: in vivo; settings: for Prothrombin Time LS Means: averaged over time and sex
Method: A study was conducted to evaluate the margin of safety of metamizole when administered intravenously to horses for 9 days at doses of 0 mg/kg (0×), 30 mg/kg (1×), 60 mg/kg (2×), and 90 mg/kg (3×) of body weight three times daily (TID), every 8 hours±30 min.
This was a prospective, blinded, randomized, placebo-controlled, parallel-group laboratory study in research horses. Thirty-two horses were enrolled in the study (Table 1).
Treatment phase involved administration of the investigational drug or placebo. The investigational drug was a sterile injectable formulation of dipyrone (Zimeta™, Corden Pharma, Caponago, Italy) (500 mg/mL) in 100 mL glass bottles. The placebo was sterile injectable saline (Nova-Tech Inc, Grand Island, NE) (0.9% sodium chloride) in 500 mL plastic bottles labeled for veterinary use. Dipyrone treatment groups were 30 mg/kg (1×), 60 mg/kg (2×), and 90 mg/kg (3×). Placebo treatment group was saline administered at a volume to match the 3× dipyrone group (0×). The dose was calculated based on body weight and administered three times daily for nine consecutive days. Due to the large volume of injection at the higher dose groups, treatment was administered via indwelling intravenous (IV) catheters. Intravenous catheters were placed using standard techniques. Horses were sedated with xylazine (AnaSed® LA, VetOne, MWI, Boise, Id.) and the skin was desensitized with subcutaneous injection of lidocaine (VetOne, MWI, Boise, Id.). Intravenous catheters were replaced at the discretion of the study director and were maintained with heparinized saline flush prior to and following dose administration.
Randomization occurred on Study Day −1. […] .
For continuous endpoints with repeated post-treatment measurements (serum chemistry, coagulation, hematology, urinalysis, body weight, body temperature, heart rate and respiratory rate), repeated measurement analysis of covariance (SAS MIXED procedure RMANCOVA) was used to evaluate a model including treatment, time, sex, treatment by sex interaction, treatment by time interaction, and treatment by time by sex three-way interaction as fixed effects. In addition, baseline values were included as a covariate and remained in the model regardless of its significance. Baseline values were defined as the values prior to and nearest to the first dosing. The covariance structures for repeated measures analysis of covariance (RMANCOVA) were selected from compound symmetry (CS) and compound symmetry heterogeneous variances (CSH), since only two post baseline measurements were collected in this study. The Kenward-Roger approximation was used to calculate denominator degrees of freedom for statistical tests. The minimum Akaike Information Criterion was used to select the covariance structure.
In Table 6 below the percent of samples in each treatment group that were above the upper reference range limit of 12 seconds is listed for Days 4 and 8.

horses [2] = assay: Margin of safety study: lung bacterial culture at necropsy
[3] = 1X, 30 mg/kg IV every 8 hours, Day 4
[4] = 1X, 30 mg/kg IV every 8 hours, Day 8
[5] = 2X, 60 mg/kg IV every 8 hours, Day 4
[6] = 2X, 60 mg/kg IV every 8 hours, Day 8
[7] = 3X, 90 mg/kg IV every 8 hours, Day 4
[8] = 3X, 90 mg/kg IV every 8 hours, Day 8
[9] = 3X, 90 mg/kg IV every 8 hours, Day 8, only 7 samples
[10] = 30, 60, 90 mg/kg IV every 8 hours for 9 days vs placebo

SMILES: Cc1c(N(C)CS(=O)(=O)O)c(=O)n(-c2ccccc2)n1C [dipyrone, [(2,3-dihydro-1,5-dimethyl-3-oxo-2-phenyl-1H-pyrazol-4-yl)methylamino] methanesulfonic acid]
- Percent of samples with PT >12 sec (horses [1]; [3]): 100%
- Percent of samples with PT >14 sec (horses [1]; [3]): 25%
- Prothrombin Time Day 4 Range (horses [1]; [3]): 12.6 to 14.6 s
- Range of PT values >14 sec (horses [1]; [3]): 14.1 to 14.6 s
- Percent of samples with PT >12 sec (horses [1]; [4]): 100%
- Percent of samples with PT >14 sec (horses [1]; [4]): 13%
- Prothrombin Time Day 8 Range (horses [1]; [4]): 12.3 to 15.2 s
- Range of PT values >14 sec (horses [1]; [4]): (15.2) sec
- Prothrombin Time LS Means (horses [1]; 1X, 30 mg/kg IV every 8 hours): 13.374 s and 13.374 ± 0.4062 s
- Percent of samples with PT >12 sec (horses [1]; [5]): 100%
- Percent of samples with PT >14 sec (horses [1]; [5]): 13%
- Prothrombin Time Day 4 Range (horses [1]; [5]): 12.7 to 15.8 s
- Range of PT values >14 sec (horses [1]; [5]): 15.8 s
- Percent of samples with PT >12 sec (horses [1]; [6]): 100%
- Percent of samples with PT >14 sec (horses [1]; [6]): 50%
- Prolongation of PT observed, number of horses (horses [1]; [6]): 1
- Prothrombin Time Day 8 Range (horses [1]; [6]): 12.8 to 21.6 s
- Range of PT values >14 sec (horses [1]; [6]): (14.7-21.6) sec
- Prothrombin Time LS Means (horses [1]; 2X, 60 mg/kg IV every 8 hours): 14.524 s and 14.524 ± 0.4064 s
- Percent of samples with PT >12 sec (horses [1]; [7]): 100%
- Percent of samples with PT >14 sec (horses [1]; [7]): 75%
- Prothrombin Time Day 4 Range (horses [1]; [7]): 13.4 to 15.9 s
- Range of PT values >14 sec (horses [1]; [7]): 14.6 to 15.9 s
- Prolongation of PT observed, number of horses (horses [1]; [8]): 1
- Prothrombin Time Day 8 Range (horses [1]; [8]): 12.7 to 21.9 s
- Range of PT values >14 sec (horses [1]; [8]): (14.3-21.9) sec
- Percent of samples with PT >12 sec (horses [1]; [9]): 100%^4
- Percent of samples with PT >14 sec (horses [1]; [9]): 71%^4
- Prothrombin Time LS Means (horses [1]; 3X, 90 mg/kg IV every 8 hours): 14.946 s and 14.946 ± 0.4396 s
- Activated partial thromboplastin time (APTT) or fibrinogen (horses [1]; [10]): no statistically significant differences
- Effect on prothrombin time (PT) (horses [1]; [10]): statistically significant main treatment effect of prolongation of prothrombin time (PT)
- S. aureus cultured at necropsy, number positive horses (horses [2]; 1X, 30 mg/kg IV every 8 hours): 1
- Acinetobacter sp. cultured at necropsy, number positive horses (horses [2]; 2X, 60 mg/kg IV every 8 hours): 2X (n = 1)
- Aeromonas sp. cultured at necropsy, number positive horses (horses [2]; 2X, 60 mg/kg IV every 8 hours): 2X (n = 1)
- Pantoea sp. cultured at necropsy, number positive horses (horses [2]; 2X, 60 mg/kg IV every 8 hours): 2X (n = 1)
- Pseudomonas sp. cultured at necropsy, number positive horses (horses [2]; 2X, 60 mg/kg IV every 8 hours): 2X (n = 1)
- S. aureus cultured at necropsy, number positive horses (horses [2]; 2X, 60 mg/kg IV every 8 hours): 2
- S. dysgalactiae subsp. equisimilis cultured at necropsy, number positive horses (horses [2]; 2X, 60 mg/kg IV every 8 hours): 2X (n = 1)
- S. equi subsp. zooepidemicus cultured at necropsy, number positive horses (horses [2]; 2X, 60 mg/kg IV every 8 hours): 0X (n = 2), 2X (n = 1), 3X (n = 1)
- S. aureus cultured at necropsy, number positive horses (horses [2]; 3X, 90 mg/kg IV every 8 hours): 2
- S. equi subsp. zooepidemicus cultured at necropsy, number positive horses (horses [2]; 3X, 90 mg/kg IV every 8 hours): 0X (n = 2), 2X (n = 1), 3X (n = 1)
